We go through 18 molecules from US20110009381A1, “SOLUBILIZED THIAZOLOPYRIDINES” (Sirtis Pharmaceuticals, Inc., priority 2007, published 2011).

The test deals with T1, SIRT1 (Homo sapiens, UniProt Q96EB6).
T1 sequence (Q96EB6 1-747): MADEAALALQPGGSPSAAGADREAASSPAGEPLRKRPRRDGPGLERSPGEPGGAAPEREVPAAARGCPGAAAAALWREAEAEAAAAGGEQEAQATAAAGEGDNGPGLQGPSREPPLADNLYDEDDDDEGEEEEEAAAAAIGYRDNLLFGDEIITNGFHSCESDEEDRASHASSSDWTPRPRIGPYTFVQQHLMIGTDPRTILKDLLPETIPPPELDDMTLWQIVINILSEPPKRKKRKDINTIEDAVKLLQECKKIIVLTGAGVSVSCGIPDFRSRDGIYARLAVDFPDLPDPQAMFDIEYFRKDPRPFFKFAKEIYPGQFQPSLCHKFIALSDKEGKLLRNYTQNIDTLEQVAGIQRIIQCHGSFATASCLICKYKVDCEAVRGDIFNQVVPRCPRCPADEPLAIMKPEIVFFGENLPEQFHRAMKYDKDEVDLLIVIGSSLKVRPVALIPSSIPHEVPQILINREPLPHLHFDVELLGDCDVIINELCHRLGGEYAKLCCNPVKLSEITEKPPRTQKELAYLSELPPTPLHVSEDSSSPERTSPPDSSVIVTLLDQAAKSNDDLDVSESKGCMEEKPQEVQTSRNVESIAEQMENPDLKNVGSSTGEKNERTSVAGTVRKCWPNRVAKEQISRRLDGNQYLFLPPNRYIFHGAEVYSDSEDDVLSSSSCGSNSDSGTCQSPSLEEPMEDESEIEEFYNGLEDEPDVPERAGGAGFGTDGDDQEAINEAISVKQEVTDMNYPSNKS
The experiment in a line: Mass spectrometry based assay to identify modulators of SIRT1 activity (deacetylation of p53-based acetylated peptide substrate). The conditions noted are these: 10 nM SIRT1, 0.5 μM peptide substrate, 120 μM βNAD+, 25 minutes at 25° C.; for EC1.5: SIRT1 activation. In kind it is biochemical. In outline:
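Activation measured on His-tagged SIRT1 (10 nM, E. coli-expressed) deacetylating a 0.5 μM p53-derived acetyl-peptide with 120 μM βNAD^+ for 25 min at 25 °C, pH 8 Tris-acetate. After formic acid stop, mass spectrometry quantified acetylated versus deacetylated peptide, referenced to DMSO and nicotinamide controls. Reported as EC1.5 and maximum fold activation.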

Take `O=C(Nc1ccccc1-c1nc2cccnc2s1)c1cc(NC2CCN(C(=O)c3ccccc3)CC2)nc(-c2ccccc2)n1` [Compound 136]: the “FOLD ACT. (percent maximum fold activation)” value is “B (Fold Activation≧150% and <300%)”; the EC1.5 result was “A (EC1.5≧250 nM and ≦1 uM)”.

`COCCN(C)c1cc(C(=O)Nc2ccccc2-c2nc3cccnc3s2)nc(-c2ccccc2)c1` [Compound 137]: the “FOLD ACT. (percent maximum fold activation)” value is “A (Fold activation≧300%)” and the EC1.5 entry is given as “A′ (EC1.5<250 nM)”.

`Cc1cccc(-c2nc(C(=O)Nc3ccccc3-c3nc4cccnc4s3)cc(N3CCN(C(C)C)CC3)n2)c1` [Compound 138]: the “FOLD ACT. (percent maximum fold activation)” value was “A (Fold activation≧300%)” and the EC1.5 result was “A′ (EC1.5<250 nM)”.

For the molecule `Cc1cccc(-c2nc(C(=O)Nc3ccccc3-c3nc4cccnc4s3)cc(N3CCNCC3)n2)c1` [Compound 139], the “FOLD ACT. (percent maximum fold activation)” value is on record as “A (Fold activation≧300%)” and the EC1.5 entry is recorded as “A′ (EC1.5<250 nM)”.

Take `CC(C)CN1CCC(Nc2cc(C(=O)Nc3ccccc3-c3nc4cccnc4s3)nc(-c3ccccc3)n2)CC1` [Compound 140]: the “FOLD ACT. (percent maximum fold activation)” value was “A (Fold activation≧300%)” and the EC1.5 entry is on record as “A′ (EC1.5<250 nM)”.

Turning to `O=C(Nc1ccccc1-c1nc2cccnc2s1)c1cc(NCCCn2ccnc2)cc(-c2ccccc2)n1` [Compound 141], the “FOLD ACT. (percent maximum fold activation)” value is listed as “A (Fold activation≧300%)” and the EC1.5 entry was “A′ (EC1.5<250 nM)”.

In the case of `Cc1cccc(-c2nc(OC[C@@H](O)CO)cc(C(=O)Nc3ccccc3-c3nc4cccnc4s3)n2)c1` [Compound 142], the “FOLD ACT. (percent maximum fold activation)” value was “A (Fold activation≧300%)”; the EC1.5 result is “A (EC1.5≧250 nM and ≦1 uM)”.

On to `COCCN(CCOC)c1cc(C(=O)Nc2ccccc2-c2nc3cccnc3s2)nc(-c2cccc(C)c2)n1` [Compound 143], for which the “FOLD ACT. (percent maximum fold activation)” value is “A (Fold activation≧300%)” and the EC1.5 entry is reported as “A′ (EC1.5<250 nM)”.

For `O=C(Nc1ccccc1-c1nc2cccnc2s1)c1cc(N2CCN3CCC[C@H]3C2)cc(-c2ccccc2)n1` [Compound 144], the “FOLD ACT. (percent maximum fold activation)” value is reported as “A (Fold activation≧300%)” and the EC1.5 result is “A′ (EC1.5<250 nM)”.

For the molecule `CN(C)CCN(C)c1cc(C(=O)Nc2ccccc2-c2nc3cccnc3s2)nc(-c2ccccc2)n1` [Compound 145], the “FOLD ACT. (percent maximum fold activation)” value is “A (Fold activation≧300%)” and the EC1.5 entry is “A′ (EC1.5<250 nM)”.

As for `CCN(CCN(C)C)c1cc(C(=O)Nc2ccccc2-c2nc3cccnc3s2)nc(-c2ccccc2)n1` [Compound 146], the “FOLD ACT. (percent maximum fold activation)” value is “A (Fold activation≧300%)” and the EC1.5 entry is reported as “A′ (EC1.5<250 nM)”.

For `CNCCN(C)c1cc(C(=O)Nc2ccccc2-c2nc3cccnc3s2)nc(-c2ccccc2)n1` [Compound 147], the “FOLD ACT. (percent maximum fold activation)” value was “A (Fold activation≧300%)” and the EC1.5 entry was “A′ (EC1.5<250 nM)”.

Consider `Cc1cccc(-c2nc(C(=O)Nc3ccccc3-c3nc4cccnc4s3)cc(N3CCOCC3)n2)c1` [Compound 148], for which the “FOLD ACT. (percent maximum fold activation)” value is “B (Fold Activation≧150% and <300%)”; the EC1.5 entry is “A (EC1.5≧250 nM and ≦1 uM)”.

For the molecule `O=C1CN(c2cc(C(=O)Nc3ccccc3-c3nc4cccnc4s3)nc(-c3ccccc3)n2)CCN1` [Compound 149], the “FOLD ACT. (percent maximum fold activation)” value is “B (Fold Activation≧150% and <300%)”; the EC1.5 entry is “A (EC1.5≧250 nM and ≦1 uM)”.

Take `CCN1CCN(c2cc(C(=O)Nc3ccccc3-c3nc4cccnc4s3)nc(-c3ccccc3)n2)CC1=O` [Compound 150]: the “FOLD ACT. (percent maximum fold activation)” value is “A (Fold activation≧300%)”; the EC1.5 entry is “A (EC1.5≧250 nM and ≦1 uM)”.

On to `CN1CCN(c2cc(C(=O)Nc3ccccc3-c3nc4cccnc4s3)nc(-c3ccccc3)n2)CC1=O` [Compound 151], for which the “FOLD ACT. (percent maximum fold activation)” value is “B (Fold Activation≧150% and <300%)”; the EC1.5 result is “A′ (EC1.5<250 nM)”.

For the molecule `NCCOc1cc(C(=O)Nc2ccccc2-c2nc3cccnc3s2)nc(-c2ccccc2)n1` [Compound 152], the “FOLD ACT. (percent maximum fold activation)” value was “A (Fold activation≧300%)” and the EC1.5 result is given as “A′ (EC1.5<250 nM)”.

As for `CN(C)CCCOc1cc(C(=O)Nc2ccccc2-c2nc3cccnc3s2)nc(-c2ccccc2)n1` [Compound 153], the “FOLD ACT. (percent maximum fold activation)” value was “A (Fold activation≧300%)”; the EC1.5 entry was “A (EC1.5≧250 nM and ≦1 uM)”.
